# Patent publication US7910575B2, “Prophylactic or therapeutic agents for allergic ophthalmic diseases or allergic nasal diseases, comprising tricyclic triazolobenzazepine derivative” (Meiji Seika Kaisha, Ltd., priority 2006, dated 2011)
# “And” between values parts separate entries of the source, which are not always exact repeats. Equal values may be shown once. Where a name gives a salt, the structure may show the parent alone. Marks after values point to notes of the source that are not given here.
# Columns and labels:
# allergic rhinitis [1] = assay: Therapeutic effect on allergic rhinitis (nasal drops one hr after induction); assay type: in vivo, rat; conditions: for Dye leakage amount increase Inhibition ratio: nasal drops, one hr after administration of the antigen
# Procedure: In the same manner as in Test Example 4-1, the allergic reaction was induced, and the vascular permeability in the late phase of the allergic rhinitis was measured. In this case, however, for the evaluation of the therapeutic effect, compound A, Amlexanox, and Ketotifen were administered one hr after the induction of the allergic reaction. Since greenie was leaked, the dose was doubled (10 μL) so that the dispersion of the medicament within the nasal cavities is not inhibited, and the concentration of the medicament was regulated with physiological saline to the half of the concentration in the experiment on prophylactic effect to render the dose per individual identical.
# The medicament was administered one hr after the administration of the antigen.
# allergic rhinitis [2] = assay: Prophylactic effect on allergic rhinitis (nasal drops immediately before induction); assay type: in vivo, rat; conditions: for Increase in dye leakage amount Inhibition ratio: immediately before antigen administration
# Procedure: Male Sprague Dawley rats (n=6) were prepared. Bordetella pertussis (4×10^10) and 1 mg of dinitrophenylated ovalbumin (hereinafter referred to as “DNP-OA”) were subcutaneously administered into the footpad of the rats. […] After six hr from the antigen administration, Evans Blue (a dye) (50 mg/kg) was intravenously administered.
# After nine hr from the induction of the allergic reaction, the nasal septal mucosa of the rats was harvested, and the weight of the tissue was measured. The tissue of the nasal septal mucosa was lysed with 1 N KOH, and the leakage amount of the dye was determined as an index of vascular permeability in the late phase of the allergic rhinitis.
# In this case, physiological saline was administered instead of the antigen.
# In the table, the inhibition ratio was calculated by the following equation. Inhibition(%)=100×{(B−A)−(C−A)}÷(B−A)
# wherein A represents a negative control group (a nonsensitized group); B represents a control group; and C represents a medicament administered group.
# allergic conjunctivitis [3] = assay: Therapeutic effect on allergic conjunctivitis (instillation three hr after induction); assay type: in vivo, rat; conditions: for Tissue weight increase: 5 μL/eye three hr after induction of the allergic reaction; for therapeutic effect on allergic conjunctivitis (in words): instillation three hr after induction
# Procedure: Compound A, Betamethasone, control group, and negative control group were administered at the same concentration as in Test Example 1-1, and the concentration of Betamethasone was as shown in Table 3. The test was carried out in the same manner as in Test Example 1-1, except that, three hr after the induction of the allergic reaction, for compound A, Betamethasone, control group, and negative control group were administered, the test solution was administered at a dose of 5 μL/eye to the right eye.
# allergic conjunctivitis [4] = assay: Prophylactic effect on allergic conjunctivitis (instillation before induction, late phase); assay type: in vivo, rat; conditions: for Inhibition ratio Increase in tissue weight: Test Example 1-2, medicament concentration 0.1%, instillation before induction; for Inhibition ratio (%) Increase in tissue weight: 5 μL/eye 15 min before induction; for Inhibition ratio (%) Increase in dye leakage amount: 15 min before induction, Evans Blue
# Procedure: Male SD rats were prepared. Bordetella pertussis (4×10^10) and 1 mg of dinitrophenylated ovalbumin (hereinafter often abbreviated to “DNP-OA”) were subcutaneously administered into the footpad of the rats. After 8 to 10 days from the administration, a 3% DNP-OA solution was administered to the right eye of the rats to induce an allergic reaction. In some experiments, in order to confirm dye leakage and location of edema, a dye was injected, and, in the anatomy, the coincidence of dye leakage with the location of edema was confirmed. […] After 9 hr from the induction of the allergic reaction, the eyeballs of the rats were harvested. Further, lenses, hydatoids, and the contents of the vitreous body were removed from the eyeballs, and the weight of the tissues was measured. Furthermore, the dye leakage amount in the harvested eye tissue was measured. […] The absorbance (630 nm) of Evans Blue in the supernatant was measured with Multiskan JX (manufactured by Labsystem Ltd.). The amount of the dye was regarded as a dye leakage amount. […] For the control group, 0.15 M sodium hydrogencarbonate adjusted to pH 7.2 was administered. For a negative control group (a nonsensitization group), a 3% DNP-OA solution was administered to the right eye of the nonsensitized rats, and the solvent was used into the same manner as in the control group. The medicament or the solvent was administered to the right eye (5 μL/eye) 15 min before the induction of the allergic reaction. Compound A was administered at concentrations of 0.01%, 0.1%, and 1% for studies of dose response. In the table, the inhibition ratio was calculated by the following equation.
# rabbit eye (conjunctiva) = assay: Severe eye irritation test using rabbits; assay type: in vivo; conditions: instillation six times per day at 30 min intervals for two days
# [5] = Concentration of compound A in the eye tissue after instillation; assay type: in vivo, rabbit
# Procedure: A test solution (0.1% or 1%) of compound A in an isotonic borate buffer solution adjusted to pH 7.4 and a test solution (0.1%) of compound B in an isotonic borate buffer solution were provided, and 50 μL of each test solution was administered as ocular instillation to male rabbits.
# The concentration of compound A in the eye tissue after instillation was measured as follows. At the outset, the tissue was removed from the test animals and was cryopreserved. Purified water (0.1 mL) was added to a sufficient quantity of the cryopreserved tissue and the like followed by homogenization. Thereafter, 0.5 mL of 0.1% phosphoric acid, 0.05 mL of an internal standard solution (a predetermined internal standard substance ([…]) described in WO 95/18130), 0.05 mL of acetonitrile, and 0.05 mL of purified water were added thereto. An extraction solvent (25% chloroform/diethyl ether) (8 mL) was added, and the mixture was shaken and centrifuged. Thereafter, 7 mL of the organic layer was evaporated to dryness under the negative pressure, and the residue was dissolved in 0.3 mL of a mobile phase to give an analyte. A liquid prepared by mixing and dissolving 0.55 g of tetraoxyl ammonium bromide into 450 mL of acetonitrile, 450 mL of 10 mM phosphate buffer solution, and 100 mL of methanol was used as the mobile phase. The concentration of compound A was measured by injecting 0.025 mL of the analyte into high-performance liquid chromatography (HPLC) (measurement conditions: fluorescence excitation 270 nm, emission 466 nm).
# The concentration of only compound A in the eye tissue was measured because compound B is a prodrug of compound A.
# [6] = test system: epithelial cells of cornea in human eyes; assay: Toxicity against epithelial cells of cornea, 24-hr cell survival rate; assay type: cell-based
# From the text: Specifically, toxicity against epithelial cells of cornea in human eyes was studied.
# allergic conjunctivitis [7] = assay: Prophylactic effect on allergic conjunctivitis (instillation before induction, late phase); assay type: in vivo, rat
# [8] = Test Example 4-2, nasal drops at concentrations of Table 9
# [9] = medicament concentration 0.1%, 0.5 μg/rat, 9 hr after induction
# [10] = medicament concentration 1%, 5 μg/rat, 9 hr after induction
compound,measurement,setting,value
CC(C)c1ccc2oc3nc(N)c(C(=O)O)cc3c(=O)c2c1 [Amlexanox],Dye leakage amount increase Inhibition ratio,"allergic rhinitis [1]; 0.125%, 25 μg/rat",25.0%
same,prophylactic effect on allergic rhinitis (in words),allergic rhinitis [2]; [8],had prophylactic effect on allergic rhinitis
same,Increase in dye leakage amount Inhibition ratio,"allergic rhinitis [2]; Test Example 4-2, nasal drops, 0.25%, 25 μg/rat",81.1% **
"C[C@H]1C[C@H]2[C@@H]3CCC4=CC(=O)C=C[C@]4(C)[C@@]3(F)[C@@H](O)C[C@]2(C)[C@@]1(O)C(=O)COP(=O)([O-])[O-].[Na+].[Na+] [Betamethazone, betamethazone sodium phosphate, reference compound]",Tissue weight increase,allergic conjunctivitis [3]; 0.1%,74.8% **
same,therapeutic effect on allergic conjunctivitis (in words),allergic conjunctivitis [3],potent therapeutic effect
"COc1cc2[nH]c(=O)c3nn[nH]c3c(=O)c2cc1OC [Compound A, 7,8-Dimethoxy-4(5H),10-dioxo-1H-1,2,3-triazolo[4,5-c][1]benzazepine]",Inhibition ratio Increase in tissue weight,allergic conjunctivitis [4],99.1% **
same,Inhibition ratio (%) Increase in tissue weight,"allergic conjunctivitis [4]; medicament concentration 0.01%, 0.05 μg/rat, eye harvested 9 hr after induction",67.0% **
same,Inhibition ratio (%) Increase in dye leakage amount,"allergic conjunctivitis [4]; medicament concentration 0.01%, 0.05 μg/rat, 9 hr after induction",74.4% **
same,Inhibition ratio (%) Increase in tissue weight,allergic conjunctivitis [4]; [9],89.0% **
same,Inhibition ratio (%) Increase in dye leakage amount,allergic conjunctivitis [4]; [9],83.9% **
same,Inhibition ratio (%) Increase in tissue weight,allergic conjunctivitis [4]; [10],83.7% **
same,Inhibition ratio (%) Increase in dye leakage amount,allergic conjunctivitis [4]; [10],87.6% **
same,eye irritation,rabbit eye (conjunctiva); 0.5%,irritation was not observed at all
same,eye irritation,rabbit eye (conjunctiva); 3%,only slight reddening of the conjunctiva was observed
same,therapeutic effect on allergic rhinitis (in words),allergic rhinitis [1]; nasal drops one hr after antigen,exhibited therapeutic effect on the allergic rhinitis
same,Dye leakage amount increase Inhibition ratio,"allergic rhinitis [1]; 0.05%, 10 μg/rat",93.8% **
same,maximum eye tissue concentration,[5]; instillation of a 0.1% liquid,1.29 μg/g and 4.7 μM
same,concentration at 0.25 h,"[5]; male, eye tissue, topical, 50 μL of 1% solution, 1% test solution, 50 μL instillation, rabbit, 0.25 hr after instillation, average ± standard error",6090 ± 2200 ng/g
same,concentration at 1 h,"[5]; male, eye tissue, topical, 50 μL of 1% solution, 1% test solution, 50 μL instillation, rabbit, 1 hr after instillation",1150 ± 830 ng/g
same,concentration at 2 h,"[5]; male, eye tissue, topical, 50 μL of 1% solution, 1% test solution, 50 μL instillation, rabbit, 2 hr after instillation",1260 ± 940 ng/g
same,concentration at 4 h,"[5]; male, eye tissue, topical, 50 μL of 1% solution, 1% test solution, 50 μL instillation, rabbit, 4 hr after instillation",1380 ± 540 ng/g
same,concentration at 8 h,"[5]; male, eye tissue, topical, 50 μL of 1% solution, 1% test solution, 50 μL instillation, rabbit, 8 hr after instillation",660 ± 420 ng/g
same,concentration at 24 h,"[5]; male, eye tissue, topical, 50 μL of 1% solution, 1% test solution, 50 μL instillation, rabbit, 24 hr after instillation",60 ± 60 ng/g
same,non-toxic concentration relative to the maximum eye tissue concentration,[6]; 0.3 mM versus 4.7 μM (0.1% liquid instillation),not less than 60 times
same,toxicity against epithelial cells of cornea (24-hr cell survival rate),[6]; concentration range of 100 nM to 0.3 mM,any toxicity was not observed
same,Tissue weight increase,allergic conjunctivitis [3]; 0.01%,70.3% **
same,Tissue weight increase,allergic conjunctivitis [3]; 0.1%,99.9% **
same,Tissue weight increase,allergic conjunctivitis [3]; 1%,103.7% **
same,therapeutic effect on allergic conjunctivitis (in words),allergic conjunctivitis [3],potent therapeutic effect
same,prophylactic effect on allergic rhinitis (in words),"allergic rhinitis [2]; Test Example 4-1, nasal drops 0.01% to 1%",effective against allergic rhinitis dose-dependently
same,prophylactic effect on allergic rhinitis (in words),allergic rhinitis [2]; [8],had prophylactic effect on allergic rhinitis
same,Increase in dye leakage amount Inhibition ratio,"allergic rhinitis [2]; Test Example 4-2, nasal drops, 0.1%, 10 μg/rat",95.7% **
same,Increase in dye leakage amount Inhibition ratio,"allergic rhinitis [2]; nasal drops, 0.01%, 1 μg/rat, nasal septal mucosa 9 hr after induction",52.9% **
same,Increase in dye leakage amount Inhibition ratio,"allergic rhinitis [2]; nasal drops, 0.1%, 10 μg/rat, 9 hr after induction",111.7% **
same,Increase in dye leakage amount Inhibition ratio,"allergic rhinitis [2]; nasal drops, 1%, 100 μg/rat, 9 hr after induction",123.1% **
"O=C(O)c1cc(=O)c2c(OCC(O)COc3cccc4oc(C(=O)O)cc(=O)c34)cccc2o1 [Cromoglycate, cromoglycate sodium]",Inhibition ratio Increase in tissue weight,"allergic conjunctivitis [7]; Test Example 1-2, medicament concentration 2%",14.7%
same,Increase in dye leakage amount Inhibition ratio,"allergic rhinitis [2]; Test Example 4-2, nasal drops, 2%, 200 μg/rat",2.9%
"CC(=O)[C@@]1(O)CC[C@H]2[C@@H]3C[C@H](C)C4=CC(=O)C=C[C@]4(C)[C@@]3(F)[C@@H](O)C[C@@]21C [Fluorometholone, fluorometholone, reference compound]",Inhibition ratio Increase in tissue weight,allergic conjunctivitis [4],59.4% *
"CCC(=O)O[C@]1(C(=O)SCF)[C@H](C)C[C@H]2[C@@H]3C[C@H](F)C4=CC(=O)C=C[C@]4(C)[C@@]3(F)[C@@H](O)C[C@@]21C [Fluticasone, fluticasone propinate]",Increase in dye leakage amount Inhibition ratio,"allergic rhinitis [2]; Test Example 4-2, nasal drops, 0.051%, 5.1 μg/rat",106.0% **
"CN1CCC(=C2c3ccccc3CC(=O)c3sccc32)CC1 [Ketotifen, ketotifen fumarate]",Inhibition ratio Increase in tissue weight,"allergic conjunctivitis [7]; Test Example 1-2, medicament concentration 0.05%",13.4%
same,Dye leakage amount increase Inhibition ratio,"allergic rhinitis [1]; 0.0275%, 5.5 μg/rat",48.6%
same,prophylactic effect on allergic rhinitis (in words),allergic rhinitis [2]; [8],had prophylactic effect on allergic rhinitis
same,Increase in dye leakage amount Inhibition ratio,"allergic rhinitis [2]; Test Example 4-2, nasal drops, 0.055%, 5.5 μg/rat",49.4%
"C[C@@H]1CN([C@H]2CC[C@](C#N)(c3ccc(F)cc3)CC2)CC[C@]1(C(=O)O)c1ccccc1 [Levocabastine, levocabastine hydrochloride]",Inhibition ratio Increase in tissue weight,"allergic conjunctivitis [7]; Test Example 1-2, medicament concentration 0.025%",11.1%
same,Increase in dye leakage amount Inhibition ratio,"allergic rhinitis [2]; Test Example 4-2, nasal drops, 0.025%, 2.5 μg/rat",22.7%
